Source: PMC9743094, “Synthesis and Evaluation of Polymyxins Bearing Reductively Labile Disulfide-Linked Lipids” (Journal of Medicinal Chemistry, 2022)

Legend:
[1] = system: A. baumannii (ATCC 19606); assay type: cell-based; conditions: broth microdilution, CLSI, CAMHB, 10^6 CFU/mL, 37 °C, visual growth; triplicate experiments
Method in brief: (§1)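 Broth microdilution per CLSI in cation-adjusted Mueller–Hinton Broth (12.5 μg/mL Mg^2+, 20 μg/mL Ca^2+), inoculum 10^6 CFU/mL final, 37 °C. MIC taken as lowest concentration with no visible growth, consistent across at least duplicate experiments.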

E. coli (ATCC 25922) = assay type: cell-based; conditions: broth microdilution, CLSI, CAMHB, 10^6 CFU/mL, 37 °C, visual growth; triplicate experiments
Method in brief: as §1

[2] = system: K. pneumoniae (ATCC 13883); assay type: cell-based; conditions: broth microdilution, CLSI, CAMHB, 10^6 CFU/mL, 37 °C, visual growth; triplicate experiments
Method in brief: as §1

[3] = system: P. aeruginosa (ATCC 27853); assay type: cell-based; conditions: broth microdilution, CLSI, CAMHB, 10^6 CFU/mL, 37 °C, visual growth; triplicate experiments
Method in brief: as §1

[4] = system: differentiated conditionally immortalized PTECs (ciPTECs, OAT-1); assay: ciPTEC toxicity assay (PrestoBlue); assay type: cell-based, human; conditions: 37 °C
Method in brief: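 ciPTEC (OAT-1) cells were differentiated 24 h at 33 °C then 6 days at 37 °C before 24 h exposure at 37 °C to serially diluted compounds in serum-free medium. Viability by 10% PrestoBlue fluorescence (530/590 nm), relative to untreated cells. TC50 from nonlinear regression with bottom fixed at 0; triplicates.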

[5] = system: Red blood cells from defibrinated sheep blood; assay: Hemolysis assay; assay type: cell-based; conditions: 128 μg/mL, 1 h, 37 °C, absorbance 415 nm, normalized to 0.1% Triton-X100, triplicates
Procedure: Red blood cells from defibrinated sheep blood (Thermo Fisher Scientific) were centrifuged (400g for 15 min at 4 °C) and washed with PBS containing 0.002% Tween20 four times. The red blood cells were normalized to obtain an absorbance value between 2.5 and 3.0 at 415 nm to stay in the linear range of the assay with maximum sensitivity. A serial dilution of the compounds (128–4 μg/mL, 75 μL) was prepared in a 96-well plate. Each plate contained a positive control (0.1% Triton-X final concentration, 75 μL) and a negative control (buffer, 75 μL). The normalized blood cells (75 μL) were added, and the plates were incubated at 37 °C for 1 h while shaking at 500 rpm. After incubation, the plates were centrifuged (800g for 5 min at RT) and 25 μL of the supernatant was transferred to a second plate, containing 100 μL of PBS in each well. Absorbance was read-out at 415 nm. Values were corrected for background (negative control) and transformed to a percentage relative to the positive control. Results shown (Supporting Information Figure S2) are based on triplicate data.
Stability assessment in presence of glutathione
Figure S1. Compound stability upon incubation with low (5 μM) or high (5 mM) glutathione (GSH) concentration.
Compounds were incubated in PBS with the indicated concentration glutathione for 24 hours. Indicated data points are
based upon integration of HPLC UV data.
Figure S2. […]

A. baumannii BAA-747 = assay type: cell-based; conditions: broth microdilution, CAMHB
Procedure: (§2) Minimum inhibitory concentrations (MICs) on relevant Gram-negative bacteria were determined by broth microdilution, in accordance with CLSI guidelines. Indicated bacteria were taken from glycerol stocks and incubated overnight on blood agar at 37 °C. Well-isolated colonies were taken, suspended in TSB (5 mL), and grown to an OD600 of 0.5. Compounds to be tested were dissolved in DMSO (6.4 mg/mL), diluted in cation-adjusted Mueller–Hinton Broth (CAMHB) (12.5 and 20 μg/mL Mg^2+ and Ca^2+, respectively), and diluted serially on polypropylene microtiter plates. To the diluted compounds (50 μL per well) was added 50 μL of relevant bacterial suspension, to yield a final concentration of 10^6 CFU/mL. Plates were covered by adhesive gas-permeable membranes and incubated at 37 °C. MIC was read out as the lowest concentration that inhibited visual bacterial growth. Shown values are consistent results from at least duplicate experiments.
(§3) Bacterial strains used for MIC assays and extended MIC assessment
(§4) Strains: The following strains were obtained from BEI Resources, NIAID, NIH: E. Coli M0072, strain
(§5) Table S2. […] Values are given in μg/mL.
(§6) Species Strain ID Resistance Polymyxin B 18b 23a 24a

A. baumannii NRZ-00687 = assay type: cell-based; conditions: resistance indicator: NDM-2; broth microdilution, CAMHB
Procedure: as §2, §3, §4, §5, §6

A. baumannii RUH-134 = assay type: cell-based; conditions: resistance indicator: Multiple; broth microdilution, CAMHB
Procedure: as §2, §3, §4, §5, §6

E. coli 1793 = assay type: cell-based; conditions: resistance indicator: NDM-1; broth microdilution, CAMHB
Procedure: as §2, §3, §4, §5, §6

E. coli JS136 = assay type: cell-based; conditions: resistance indicator: OXA-48; broth microdilution, CAMHB
Procedure: as §2, §3, §4, §5, §6

E. coli M0072 = assay type: cell-based; conditions: resistance indicator: Multiple; broth microdilution, CAMHB
Procedure: as §2, §3, §4, §5, §6

K. pneumoniae ATCC 29665 = assay type: cell-based; conditions: broth microdilution, CAMHB
Procedure: as §2, §3, §4, §5, §6

K. pneumoniae KP1.53 = assay type: cell-based; conditions: resistance indicator: MDR; broth microdilution, CAMHB
Procedure: as §2, §3, §4, §5, §6

K. pneumoniae RC0045 = assay type: cell-based; conditions: resistance indicator: OXA-48; broth microdilution, CAMHB
Procedure: as §2, §3, §4, §5, §6

P. aeruginosa 2018-007 = assay type: cell-based; conditions: resistance indicator: IMP-7; broth microdilution, CAMHB
Procedure: as §2, §3, §4, §5, §6

P. aeruginosa 2251 = assay type: cell-based; conditions: resistance indicator: VIM-2; broth microdilution, CAMHB
Procedure: as §2, §3, §4, §5, §6

P. aeruginosa ATCC 10145 = assay type: cell-based; conditions: broth microdilution, CAMHB
Procedure: as §2, §3, §4, §5, §6

P. aeruginosa M120 = assay type: cell-based; conditions: resistance indicator: OXA-50, blaPAO; broth microdilution, CAMHB
Procedure: as §2, §3, §4, §5, §6

A. baumanii (ATCC 17961) = assay type: cell-based; conditions: broth microdilution, CAMHB
Procedure: as §2
(§7) Table S3. MIC values [µg/mL] and relative toxicity values for disulfide containing polymyxin derivative 18b and
(§8) non-disulfide containing analogue 45. […]

P. aeruginosa (PAO1) = assay type: cell-based; conditions: broth microdilution, CAMHB
Procedure: as §2, §7, §8

Polymyxin B [reference compound]
MIC A. baumannii (ATCC 19606) [1]: 0.25 µg/mL | MIC E. coli (ATCC 25922) (E. coli (ATCC 25922)): 1 µg/mL | MIC K. pneumoniae (ATCC 13883) [2]: 0.25 µg/mL | MIC P. aeruginosa (ATCC 27853) [3]: 1 µg/mL | ciPTEC Toxicity Index (relative to polymyxin B) ([4]; TC50 expressed relative to polymyxin B, 24 h incubation, serum-free medium, PrestoBlue fluorescence, nonlinear regression, triplicate): 1.0 | TC50, Day 1 ([4]; cell batch/analysis Day 1, ciPTEC, 24 h, PrestoBlue, non-linear regression with bottom constraint at 0, triplicates): 80 µM | TC50, Day 2 ([4]; cell batch/analysis Day 2, ciPTEC, 24 h, PrestoBlue, non-linear regression with bottom constraint at 0, triplicates): 41 µM | percent hemolysis [5]: below 5% | MIC A. baumannii BAA-747 (A. baumannii BAA-747): 0.25 µg/mL | MIC A. baumannii NRZ-00687 (A. baumannii NRZ-00687): 0.25 µg/mL | MIC A. baumannii RUH-134 (A. baumannii RUH-134): 0.25 µg/mL | MIC E. coli 1793 (E. coli 1793): 0.063 µg/mL | MIC E. coli JS136 (E. coli JS136): 0.125 µg/mL | MIC E. coli M0072 (E. coli M0072): 0.125 µg/mL | MIC K. pneumoniae ATCC 29665 (K. pneumoniae ATCC 29665): 0.25 µg/mL | MIC K. pneumoniae KP1.53 (K. pneumoniae KP1.53): 0.5 µg/mL | MIC K. pneumoniae RC0045 (K. pneumoniae RC0045): 0.25 µg/mL | MIC P. aeruginosa 2018-007 (P. aeruginosa 2018-007): 2 µg/mL | MIC P. aeruginosa 2251 (P. aeruginosa 2251): 1 µg/mL | MIC P. aeruginosa ATCC 10145 (P. aeruginosa ATCC 10145): 1 µg/mL | MIC P. aeruginosa M120 (P. aeruginosa M120): 1 µg/mL | MIC A. baumanii (ATCC 17961) (A. baumanii (ATCC 17961)): 0.25 µg/mL | MIC P. aeruginosa (PAO1) (P. aeruginosa (PAO1)): 0.5 µg/mL
